Results reported in PubChem BioAssay (NCI).
Where “and” joins values, the source holds several entries; their conditions need not be identical. Identical values can stand only once.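 Following 48 hours of exposure in 96-well plates, responses at five concentrations were used to interpolate endpoints linearly. Definition used: TGI = concentration required for complete inhibition of growth.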

Legend:
Assay in all cases: growth of human tumour cells (NCI), 48 h
M14 melanoma = test system: M14 melanoma
OVCAR-4 ovarian = test system: OVCAR-4 ovarian
U251 CNS = test system: U251 CNS
K-562 leukemia = test system: K-562 leukemia
SR leukemia = test system: SR leukemia
HS 578T breast = test system: HS 578T breast
KM20L2 colon = test system: KM20L2 colon
DLD-1 colon = test system: DLD-1 colon
DMS 114 small cell lung = test system: DMS 114 small cell lung
SNB-78 CNS = test system: SNB-78 CNS

SMILES	TGI (M14 melanoma)	TGI (OVCAR-4 ovarian)	TGI (U251 CNS) [µM]	TGI (K-562 leukemia) [µM]	TGI (SR leukemia) [µM]	TGI (HS 578T breast) [µM]	TGI (KM20L2 colon) [µM]	TGI (DLD-1 colon) [µM]	TGI (DMS 114 small cell lung) [µM]	TGI (SNB-78 CNS) [µM]
C/C1=C\CC[C@@]2(C)O[C@@H]2C[C@@H]2[C@H](C/C(C)=C/CC1)OC(=O)[C@]21CO1	> 100 µM	> 100 µM	> 100	> 100	> 100	> 100	–	–	–	–
CCCc1cn2c(/C=N/N=C(N)N)c(-c3ccc([N+](=O)[O-])cc3)nc2s1	3.18 µM	–	1.39	–	–	–	–	–	–	–
CC(C)(Cl)C(Cl)CC/C(CBr)=C(\Cl)CBr (stereo not given)	3.22 µM	2.9 µM	3.57	–	–	4.54	–	–	–	–
Oc1c(Cl)c(Cl)c(O)c(-c2cnc(-c3ncc(-c4c(O)c(Cl)c(Cl)c(O)c4Cl)s3)s2)c1Cl	47.2 µM	> 100 µM	48.7	> 100	> 100	56.5	–	–	–	–
O=C(O)CCC1(CCC(=O)O)CCCCCCCCC(CCC(=O)O)(CCC(=O)O)C(=O)C1=O	> 100 µM	> 100 µM	> 100	> 100	> 100	> 100	–	–	–	–
Cc1cc2nc3c(C#N)c4c(c(Cl)n3c2cc1C)CCC4	–	> 100 µM	30.4	–	–	–	–	–	–	–
CC(=O)OC1(C)CC(C)C(=O)C(C(O)CC2CC(=O)NC(=O)C2)C1 (stereo not given)	0.172 µM and 0.0421 µM	0.178 µM and 0.0277 µM	21.3	0.0322	–	–	–	–	–	–
O=C(OCC1CC(C2(O)CCCCC2)C(=O)O1)c1ccccc1 (stereo not given)	> 100 µM	> 100 µM	> 100	> 100	> 100	–	–	–	–	–
O=C(NCCCN1CCN(CCCNC(=O)c2cc(-c3ccccc3)nc3ccccc23)CC1)c1cc(-c2ccccc2)nc2ccccc12	5.63 µM	> 58.4 µM	30.7	34.2	–	37.1	–	–	–	–
Cc1ccc(/C=C2\CCS(=O)(=O)c3ccccc3C2=O)cc1	73.6 µM	34.8 µM	30.8	> 100	63.7	> 100	–	–	–	–
COc1c(-c2ccc(F)cc2)oc2c(CC(=O)O)cccc2c1=O	> 100 µM	–	> 100	> 100	> 100	> 100	–	–	–	–
CC(=O)OC1CC2C(=O)CC1(C)C2(C)C (stereo not given)	> 100 µM	> 100 µM	> 100	> 100	> 100	> 100	–	–	–	–
CCOC(=O)Cc1ccc(Nc2nc3cc(F)c(F)cc3nc2C(=O)OCC)cc1	> 100 µM	> 100 µM	> 100	> 100	> 100	> 100	–	–	–	–
CCn1c(=O)c2c3ccc(O)cc3[nH]c2c2ccc(O)cc21	> 100 µM	> 100 µM	> 100	> 100	> 100	> 100	–	–	–	–
CC1=C(C(=O)NNC(=O)c2ccccc2O)CC(C(=O)NNC(=O)c2ccccc2O)=C(C)N1	> 76 µM	> 100 µM	> 100	> 100	> 29.2	> 100	–	–	–	–
Cc1c2c(n3c(nc4ccccc43)c1C#N)NCC2	> 10 µM	> 10 µM	> 10	> 10	> 10	> 10	–	–	–	–

SMILES	TGI (M14 melanoma)	TGI (OVCAR-4 ovarian)	TGI (U251 CNS) [µM]	TGI (K-562 leukemia) [µM]	TGI (SR leukemia) [µM]	TGI (HS 578T breast) [µM]	TGI (KM20L2 colon) [µM]	TGI (DLD-1 colon) [µM]	TGI (DMS 114 small cell lung) [µM]	TGI (SNB-78 CNS) [µM]
CCOC(=O)C12CCC(c3c(C)cccc3C)(O1)C(C(=O)OC)=C2C(=O)OC (stereo not given)	> 9.53 µM	> 10 µM	> 10	> 10	6.06	> 9.49	–	–	–	–
O=C1NC(NNc2ccccc2)=N/C1=C\c1ccco1	44.5 µM	32.7 µM	39.8	–	–	74.5	–	–	–	–
O=C(Cn1c2ccc(Br)cc2c2nc3ccccc3nc21)N1CCOCC1	> 100 µM	> 100 µM	> 100	> 100	–	> 100	–	–	–	–
C=C1C(=O)O[C@H]2C1C[C@H](O)/C(C)=C/CC[C@@]1(C)O[C@H]21 (stereo not given in full)	23.9 µM	30.2 µM	> 100	> 100	30.9	75.2	–	–	–	–
COc1ccc2nc3c([N+](=O)[O-])ccc4c3c(c2c1)N=CN4CCN(C)C	18.7 µM	34.9 µM	24.5	2.94	0.855	28.1	–	–	–	–
CCOC(OCC)[C@@H]1C[C@@H]2N(O[C@H](OC3CCCC3(c3ccccc3)c3ccccc3)[C@H](OC(C)=O)[C@@]2(CC)Cc2ccc(OC)c(OC)c2)O1 (stereo not given in full)	> 100 µM	> 100 µM	> 100	> 100	> 100	–	–	–	–	–
CCOC(=O)CN1C(=O)c2c(NC(=O)C(=O)O)cccc2S1(=O)=O	> 100 µM	> 100 µM	> 100	> 100	> 100	> 100	–	–	–	–
CC(=O)c1sc2c(c1OC(=O)c1ccccc1)c(=O)n(-c1ccccc1)c(=S)n2-c1ccccc1	14.3 µM	57.9 µM	23.7	> 58.3	–	> 30.7	–	–	–	–
O=C(/C=C/c1ccc(O)c(O)c1)c1ccc(O)cc1O	34.7 µM	37.8 µM	17.6	25.4	> 78.8	78.8	31.3	29.3	7.55	58.3
O=C(/C=C/c1ccc(Cl)cc1)c1nc2ccccc2[nH]1	> 100 µM	71.3 µM	–	30.7	–	> 100	–	–	–	–
CSc1c(S(C)=O)c2ccccc2n1C (stereo not given)	> 100 µM	> 100 µM	–	> 100	> 100	> 100	–	–	–	–
CC(=O)c1ccc(Nc2nc3ccccc3c3occc23)cc1	36.5 µM	8.78 µM	> 100	–	18.4	54.1	–	–	–	–
CC(=O)Oc1ccc(C)c2c1[C@H]1CC[C@]3(C)[C@@H](OC(C)=O)CC[C@H]3[C@@H]1CC2	32.2 µM	–	29.1	68.3	> 100	47	–	–	–	–
CC(C)(C)c1cc(OCc2n[nH]c(=S)n2N)c(Cl)cc1OCc1n[nH]c(=S)n1N	> 100 µM	> 100 µM	> 100	> 100	> 100	> 100	–	–	–	–
O=C(N/N=C\c1ccc(Cl)cc1)Nc1cccc2ccccc12	> 100 µM	6.84 µM	10.1	> 100	9.11	12	–	–	–	–
